According to BindingDB's records for doi:10.1007/bf00175797 (Pharmakologisches Institut, Heidelberg, 1988):

Molecular target: Adenosine receptor A2a (Rattus norvegicus, UniProt P30543)
Sequence (P30543 whole entry): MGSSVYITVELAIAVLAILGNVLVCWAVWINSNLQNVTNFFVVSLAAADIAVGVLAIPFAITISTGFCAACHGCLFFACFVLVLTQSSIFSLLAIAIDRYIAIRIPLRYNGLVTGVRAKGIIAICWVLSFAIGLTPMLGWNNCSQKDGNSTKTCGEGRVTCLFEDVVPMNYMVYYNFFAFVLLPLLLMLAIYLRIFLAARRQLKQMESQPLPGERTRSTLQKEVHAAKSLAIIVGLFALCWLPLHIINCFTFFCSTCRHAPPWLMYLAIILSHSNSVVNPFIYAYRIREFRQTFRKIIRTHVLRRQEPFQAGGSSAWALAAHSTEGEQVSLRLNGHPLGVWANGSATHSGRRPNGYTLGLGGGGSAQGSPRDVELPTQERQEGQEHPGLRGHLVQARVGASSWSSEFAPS

Ki: 2 µM
SMILES: OC[C@H]1O[C@@H](n2cnc3c(NC4CCCC4)ncnc32)[C@H](O)[C@@H]1O
